Several values for one entry are separate records, joined by “and”; a condition that tells them apart may be missing. Identical values can stand only once. Like-named read-outs stand apart in the source and are kept apart here.
Key:
Agg-1 = target: T1, Agg-1 (Homo sapiens, UniProt O75173); experiment: Agg-1 FRET assay; assay type: biochemical; conditions: for inhibition at 7.4 µM: @ 7400 nM; for inhibition at 22.2 µM: @ 22200 nM; for inhibition at […]: @ 2500 nM; for inhibition at 33 µM: @ 33000 nM
T1 sequence (O75173 213-837): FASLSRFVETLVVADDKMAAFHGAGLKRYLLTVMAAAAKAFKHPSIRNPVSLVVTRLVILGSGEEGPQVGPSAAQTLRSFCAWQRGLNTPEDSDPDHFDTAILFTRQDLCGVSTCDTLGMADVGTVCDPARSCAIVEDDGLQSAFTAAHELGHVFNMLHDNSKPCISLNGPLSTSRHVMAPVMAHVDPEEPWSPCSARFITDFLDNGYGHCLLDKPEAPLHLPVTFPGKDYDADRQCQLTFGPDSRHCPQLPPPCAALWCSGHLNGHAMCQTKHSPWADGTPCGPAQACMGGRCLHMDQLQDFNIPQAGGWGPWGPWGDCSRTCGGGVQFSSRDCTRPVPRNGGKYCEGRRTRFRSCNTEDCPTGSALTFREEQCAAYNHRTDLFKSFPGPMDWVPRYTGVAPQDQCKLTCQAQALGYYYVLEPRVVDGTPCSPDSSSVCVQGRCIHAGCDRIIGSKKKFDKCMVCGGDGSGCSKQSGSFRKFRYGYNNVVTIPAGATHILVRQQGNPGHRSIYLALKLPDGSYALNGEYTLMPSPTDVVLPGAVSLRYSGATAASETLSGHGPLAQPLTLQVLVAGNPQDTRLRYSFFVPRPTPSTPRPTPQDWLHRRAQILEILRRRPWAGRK
Source text: The Agg-1/Agg-2 FRET data for N-[(8-hydroxyquinolin-2-yl)(phenyl)methyl]-2-phenoxyacetamide and 2-{[(phenoxyacetyl)amino](phenyl)methyl}quinolin-8-yl phenoxyacetate is presented in Table 1.

[1] = target: T2, recombinant human Aggrecanase-2 Agg2-Phe628 (Homo sapiens, UniProt Q9UNA0); experiment: Aggrecanase 2 in vitro enzyme assay (Agg-2 FRET, quenched fluorescent peptide substrate); assay type: biochemical; parameters: purified recombinant human Aggrecanase-2 Agg2-Phe628 (MW=41,737); This is a truncated form of full-length human aggrecanase-2; made in house; host or cells: CHO cells; conditions: for Agg-2 FRET Median PCT INHIB: concentration not given
T2 sequence (Q9UNA0 262-628 limits assumed): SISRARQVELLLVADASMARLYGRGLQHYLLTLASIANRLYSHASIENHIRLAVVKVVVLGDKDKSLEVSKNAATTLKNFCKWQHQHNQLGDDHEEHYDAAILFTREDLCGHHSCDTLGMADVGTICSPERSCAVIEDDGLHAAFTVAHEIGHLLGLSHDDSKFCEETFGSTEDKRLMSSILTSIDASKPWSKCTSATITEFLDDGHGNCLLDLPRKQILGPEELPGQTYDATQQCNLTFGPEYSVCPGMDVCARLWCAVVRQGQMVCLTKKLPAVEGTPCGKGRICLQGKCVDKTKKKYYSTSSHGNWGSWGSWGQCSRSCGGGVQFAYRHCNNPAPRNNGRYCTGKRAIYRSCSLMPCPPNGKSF
Outline: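 Continuous FRET assay with purified truncated human Aggrecanase-2 Agg2-Phe628 (CHO-expressed, 0.5 μg/ml final) and brevican-derived Abz/Dnp peptide (25 μM final) in 50 mM HEPES pH 7.5, 100 mM NaCl, 5 mM CaCl2, 0.1% CHAPS, 5% glycerol. Enzyme preincubated with compound before substrate; fluorescence (ex 340/em 420 nm) followed kinetically 40 min at 30 °C.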

[2] = read-out: Agg-2 IC50 (μM) or % Inhibition
[3] = read-out: Agg-2 FRET Median IC50
[4] = read-out: Agg-1 IC50 (μM) or % Inhibition

With `Cc1ccc(-c2cccc(C(Cc3cc(Cl)c4cccnc4c3O)NC(=O)C(C)(C)Oc3ccc(Cl)cc3)c2)s1` (centres unmarked) the inhibition at 66.7 µM (Agg-1; % inhibition @ 66.7 μM, read-out: Agg-1 IC50 (μM) or % Inhibition) was 47% and the inhibition at 22 µM [1, 2] was 51%.

In the case of `O=C(CNCc1cccnc1)NC(c1ccccc1)c1cc(Cl)c2cccnc2c1O` (centres unmarked) [Example 228, N-[(5-chloro-8-hydroxyquinolin-7-yl)(phenyl)methyl]-N2-(pyridin-3-ylmethyl)glycinamide], the IC50 (Agg-1; read-out: Agg1 IC50) is reported as greater than 67 µM, the “Agg-2 FRET Median PCT INHIB” value [1] is reported as 32% and the IC50 ([1]; read-out: Agg2 IC50) is reported as greater than 11 µM.

In the case of `O=C(COc1ccccc1)NC(c1ccc2c(c1)OCCO2)c1cc(Cl)c2cccnc2c1O` (centres unmarked) [N-[(5-chloro-8-hydroxyquinolin-7-yl)(2,3-dihydro-1,4-benzodioxin-6-yl)methyl]-2-phenoxyacetamide], the inhibition at 7.4 µM (Agg-1; read-out: Agg1 %) is reported as 51% and the IC50 ([1]; read-out: Agg2 IC50) is reported as 0.85 µM.

`O=C(COc1ccc(Br)cc1)NC(c1ccccc1Cl)c1cc(Cl)c2cccnc2c1O` (centres unmarked) [Example 220, 2-(4-bromophenoxy)-N-[(5-chloro-8-hydroxyquinolin-7-yl)(2-chlorophenyl)methyl]acetamide] gave an IC50 (Agg-1; read-out: Agg1 IC50) of 22 to 67 µM and an IC50 ([1]; read-out: Agg2 IC50) of 2.4 µM.

For `O=C(COc1ccc(C2CCCC2)cc1)NC(c1ccccc1Cl)c1cc(Cl)c2cccnc2c1O` (centres unmarked) [N-[(5-chloro-8-hydroxyquinolin-7-yl)(2-chlorophenyl)methyl]-2-(4-cyclopentylphenoxy)acetamide], the IC50 (Agg-1; read-out: Agg1 IC50) was greater than 20 µM and the IC50 ([1]; read-out: Agg2 IC50) was 2.4 µM.

Molecule `Cc1ccsc1C(NC(=O)Cc1ccccc1)c1cc(Cl)c2cccnc2c1O` (centres unmarked) [N-[(5-chloro-8-hydroxyquinolin-7-yl)(3-methyl-2-thienyl)methyl]-2-phenylacetamide] has an inhibition at 20 µM (Agg-1; @ 20000 nM, read-out: Agg1 %) of 52%, an IC50 ([1]; read-out: Agg2 IC50) of 2.54 µM and an IC50 [1, 3] of 2.54 µM.

`O=C(CNCc1ccccc1)NC(c1ccccc1)c1cc(Cl)c2cccnc2c1O` (centres unmarked) [Example 223, N2-benzyl-N-[(5-chloro-8-hydroxyquinolin-7-yl)(phenyl)methyl]glycinamide] showed an IC50 (Agg-1; read-out: Agg1 IC50) greater than 20 µM, an IC50 ([1]; read-out: Agg2 IC50) of 3.75 µM and an IC50 [1, 3] of 3.75 µM.

With `O=C(COc1ccccc1)NC(c1ccccc1)c1ccc2cccc(O)c2n1` (centres unmarked) [Example 276, N-[(8-hydroxyquinolin-2-yl)(phenyl)methyl]-2-phenoxyacetamide] the IC50 (Agg-1; read-out: FRET IC50 Agg-1) was 15 µM and the inhibition at 200 µM ([1]; @ 200 (μM), read-out: Agg-2 FRET % (printed in FRET IC50 column)) was 32%.

In the case of `O=C(COc1ccccc1)NC(c1ccccc1Cl)c1cc(Cl)c2cccnc2c1O` (centres unmarked) [N-[(5-chloro-8-hydroxyquinolin-7-yl)(2-chlorophenyl)methyl]-2-phenoxyacetamide], the IC50 (Agg-1; read-out: Agg1 IC50) is reported as greater than 22 µM, the IC50 ([1]; read-out: Agg2 IC50) is reported as 1.55 µM and the IC50 [1, 3] is reported as 1.55 µM and 0.35 µM.

For `O=C(COc1ccccc1)NC(c1ccccc1)c1cc(N2CCCC2)c2cccnc2c1O` (centres unmarked) [N-[(8-hydroxy-5-pyrrolidin-1-ylquinolin-7-yl)(phenyl)methyl]-2-phenoxyacetamide], the inhibition at 22.2 µM (Agg-1; read-out: Agg1 %) was 49%, the IC50 ([1]; read-out: Agg2 IC50) was 10.5 µM and the IC50 [1, 3] was 10.5 µM.

Molecule `CN(C)c1ccc(C(NC(=O)COc2ccccc2)c2cc(Cl)c3cccnc3c2O)cc1` (centres unmarked) [Example 134, N-{(5-chloro-8-hydroxyquinolin-7-yl)[4-(dimethylamino)phenyl]methyl}-2-phenoxyacetamide] has an inhibition at […] (Agg-1; read-out: Agg1 %) of 54% and an IC50 ([1]; read-out: Agg2 IC50) of 1.65 µM.

In the case of `O=C(COc1ccccc1)NC(c1ccc(-c2ccccc2)o1)c1cc(Cl)c2cccnc2c1O` (centres unmarked) [N-[(5-chloro-8-hydroxyquinolin-7-yl)(5-phenyl-2-furyl)methyl]-2-phenoxyacetamide], the IC50 (Agg-1; read-out: Agg1 IC50) is reported as greater than 22 µM, the “Agg-2 FRET Median PCT INHIB” value [1] is reported as 54% and the IC50 ([1]; read-out: Agg2 IC50) is reported as greater than 5 µM.

`O=C(CCl)Nc1cccc(C(NC(=O)COc2ccccc2)c2cc(Cl)c3cccnc3c2O)c1` (centres unmarked) [Example 205, 2-chloro-N-(3-{(5-chloro-8-hydroxyquinolin-7-yl)[(phenoxyacetyl)amino]methyl}phenyl)acetamide] was tested, and the IC50 (Agg-1; read-out: Agg1 IC50) was roughly 20 µM and the IC50 ([1]; read-out: Agg2 IC50) was 1.47 µM.

With `O=C(COc1ccccc1)NC(c1ccccc1N1CCOCC1)c1cc(Cl)c2cccnc2c1O` (centres unmarked) [N-[(5-chloro-8-hydroxyquinolin-7-yl)(2-morpholin-4-ylphenyl)methyl]-2-phenoxyacetamide] the inhibition at 22 µM (Agg-1; @ 22000 nM, read-out: Agg1 %) was 59% and the inhibition at […] ([1]; @ 1200 nM) was 43%.

`O=C(NC(Cc1cc(Cl)c2cccnc2c1O)c1cccc(CN2CCCC2)c1)c1ccc(-c2ccccc2)cc1` (centres unmarked) [drawing 65] showed an inhibition at 200 µM (Agg-1; [4]) of 54% and an inhibition at 50 µM [1, 2] of 50%.

In the case of `Cc1ccsc1C(NC(=O)COc1ccccc1)c1cc(Cl)c2cccnc2c1O` (centres unmarked) [N-[(5-chloro-8-hydroxyquinolin-7-yl)(3-methyl-2-thienyl)methyl]-2-phenoxyacetamide], the inhibition at 33 µM (Agg-1; read-out: Agg1 %) is reported as 33%, the IC50 ([1]; read-out: Agg2 IC50) is reported as 1.37 µM and the IC50 [1, 3] is reported as 1.37 µM.

For `O=C(COc1ccccc1)N[C@@H](c1ccccc1Cl)c1cc(Cl)c2cccnc2c1O` [N-[(R)-(5-chloro-8-hydroxyquinolin-7-yl)(2-chlorophenyl)methyl]-2-phenoxyacetamide], the inhibition at 22.2 µM (Agg-1; read-out: Agg1 %) was 49%, the IC50 ([1]; read-out: Agg2 IC50) was 0.97 µM and the IC50 [1, 3] was 0.97 µM and 1.22 µM.

In the case of `O=C(NC(c1ccco1)c1cc(Cl)c2cccnc2c1O)OCc1ccccc1` (centres unmarked) [benzyl [(5-chloro-8-hydroxyquinolin-7-yl)(2-furyl)methyl]carbamate], the IC50 (Agg-1; read-out: Agg1 IC50) is reported as greater than 20 µM, the “Agg-2 FRET Median PCT INHIB” value [1] is reported as 33% and the IC50 ([1]; read-out: Agg2 IC50) is reported as greater than 20 µM.

Work on `O=C(COc1ccc(Br)cc1)NC(c1ccccc1)c1cc(Cl)c2cccnc2c1O` (centres unmarked) [Example 209, 2-(4-bromophenoxy)-N-[(5-chloro-8-hydroxyquinolin-7-yl)(phenyl)methyl]acetamide] yielded an inhibition at […] (Agg-1; read-out: Agg1 %) of 44% and an IC50 ([1]; read-out: Agg2 IC50) of 18 µM.

Molecule `Cc1ccc(Oc2cccc(C(NC(=O)COc3ccccc3)c3cc(Cl)c4cccnc4c3O)c2)cc1` (centres unmarked) [Example 130, N-{(5-chloro-8-hydroxyquinolin-7-yl)[3-(4-methylphenoxy)phenyl]methyl}-2-phenoxyacetamide] has an inhibition at 22 µM (Agg-1; @ 22000 nM, read-out: Agg1 %) of 52% and an inhibition at 7.4 µM ([1]; @ 7400 nM) of 58%.

`O=C(NC(Cc1cc(Cl)c2cccnc2c1O)c1ccc(CN2CCOCC2)cc1)c1ccc(-c2ccccc2)cc1` (centres unmarked) showed an inhibition at 22 µM (Agg-1; [4]) of 59% and an inhibition at 22 µM [1, 2] of 50%.

`CO/C(=C\c1ccccc1)C(NC(=O)COc1ccccc1)c1cc(Cl)c2cccnc2c1O` (centres unmarked) [N-[(2Z)-1-(5-chloro-8-hydroxyquinolin-7-yl)-2-methoxy-3-phenylprop-2-en-1-yl]-2-phenoxyacetamide] was tested, and the inhibition at 11 µM (Agg-1; @ 11000 nM, read-out: Agg1 %) was 47% and the inhibition at […] ([1]; @ 2500 nM) was 50%.

`O=C(COc1ccccc1)NC(c1cccc2c1OCO2)c1cc(Cl)c2cccnc2c1O` (centres unmarked) [N-[1,3-benzodioxol-4-yl(5-chloro-8-hydroxyquinolin-7-yl)methyl]-2-phenoxyacetamide] gave an inhibition at 7.4 µM (Agg-1; read-out: Agg1 %) of 54% and an IC50 ([1]; read-out: Agg2 IC50) of 1.4 µM.

In the case of `CCCCCc1ccc(OCC(=O)NC(c2ccccc2Cl)c2cc(Cl)c3cccnc3c2O)cc1` (centres unmarked) [N-[(5-chloro-8-hydroxyquinolin-7-yl)(2-chlorophenyl)methyl]-2-(4-pentylphenoxy)acetamide], the inhibition at 33 µM (Agg-1; read-out: Agg1 %) is reported as 44% and the inhibition at 22 µM ([1]; @ 22000 nM, read-out: Agg2 %) is reported as 50%.

`O=C(COc1ccc(-c2ccccc2)cc1)NC(c1ccccc1Cl)c1cc(Cl)c2cccnc2c1O` (centres unmarked) [2-(biphenyl-4-yloxy)-N-[(5-chloro-8-hydroxyquinolin-7-yl)(2-chlorophenyl)methyl]acetamide] was tested, and the IC50 (Agg-1; read-out: Agg1 IC50) was 66 to 200 µM and the IC50 ([1]; read-out: Agg2 IC50) was 3.3 µM.

In the case of `O=C(COc1ccccc1)NC(c1cccc(Oc2ccccc2)c1)c1cc(Cl)c2cccnc2c1O` (centres unmarked) [Example 131, N-[(5-chloro-8-hydroxyquinolin-7-yl)(3-phenoxyphenyl)methyl]-2-phenoxyacetamide], the IC50 (Agg-1; read-out: Agg1 IC50) is reported as greater than 67 µM and the IC50 ([1]; read-out: Agg2 IC50) is reported as 4.1 µM.

Work on `O=C(NC(Cc1ccccc1)c1cc(Cl)c2cccnc2c1O)OCc1ccccc1` (centres unmarked) [benzyl [1-(5-chloro-8-hydroxyquinolin-7-yl)-2-phenylethyl]carbamate] yielded an IC50 (Agg-1; read-out: Agg1 IC50) greater than 67 µM and an IC50 ([1]; read-out: Agg2 IC50) greater than 28 µM.

`CC(C)C(=O)NC(Cc1cc(Cl)c2cccnc2c1O)c1ccc(CN(C)C)o1` (centres unmarked) showed an inhibition at 200 µM (Agg-1; [4]) of 56% and an inhibition at 200 µM [1, 2] of 49%.
